Data on 65 molecules can be found in a melting point compilation (Tetko et al.; mined from patent text by program, amines drawn as free bases though some values may be those of a salt).

As a reminder, the melting point is the temperature, or range, at which the solid turns liquid.

Molecule `C[C@]1(COC(=O)N2CCCc3cc(Cl)ccc32)Cn2cc([N+](=O)[O-])nc2O1` registered a melting point of 172 to 174 °C. Then `CC(C)Cn1c(CN2C(=O)c3ccccc3C2=O)c(-c2ccc(F)cc2)c2cc(OCc3ccccc3)ccc2c1=O`, with 198 to 199 °C. Then `COn1nnc2ccc(Cn3ccnc3)cc21`, with 132 °C; and `Cc1cc(CO)ccn1`, with 58 to 59 °C. Then `COC(=O)C1C=CCN2C(=O)C(CCOC3CCCCO3)(Cc3ccccc3)C(=O)N12` (stereo not given), with 113 to 114 °C; and `CC(=O)COc1cc(=O)oc2ccccc12`, with 163 to 165 °C; and `NC(=O)c1ccc2[nH]cc(CCN3C(=O)c4ccccc4C3=O)c2c1`, with 254 to 256 °C.

The molecule `C=CCNC(=O)Cc1c[nH]c2ccc(CCS(=O)(=O)NC)cc12` returned a melting point of 123 to 125 °C. Regarding `CCC1=NNC(C)=C(C(=O)OCCOC)C1c1cccc([N+](=O)[O-])c1` (stereo not given), the melting point came out at 141 °C.

`CCN(CC)c1nsc(NC(=O)NC)c1C#N` had a melting point of 182 to 183 °C. `Cc1ccc(C(=O)NC(NC(=S)Nc2cccnc2)C(C)(C)C)cc1` (stereo not given) registered a melting point of 168 to 169 °C.

`CCOC(=O)Cn1cc(C(=O)O)c2nc3c(C)cccc3cc2c1=O` yielded a melting point of 277 to 280 °C. Take `O=C(O)CCCc1ncccc1NS(=O)(=O)c1ccccc1`: the melting point is 156 to 157 °C.

Consider `COc1cc(C)c(CC(=O)O)cc1C(C)C`, for which the melting point lay within 107 to 109 °C. Regarding `Cc1ccccc1COC1COC(c2ccco2)OC1` (stereo not given), the melting point fell in the range of 64 to 65 °C. `CNC(=S)NCCCSc1cncc(NC(N)=NCC(F)(F)F)n1` gave a melting point of 165 to 167 °C. Then `CC(C)(C)NC(=O)C(C#N)=NO`, with 218 to 219 °C; and `O=C(CCl)Nc1ccc2c(c1NC(=O)c1ccc(Cl)cc1)C(=O)c1ccccc1C2=O`, with 224 to 225 °C. Then `OC(CNCCCOCCCCCCc1ccccc1)c1ccc2c(n1)COC(c1ccccc1)O2` (stereo not given), with 64 to 68 °C; and `Cc1ccccc1-c1c(NC(=O)Nc2ccc(F)cc2F)cnc2cc3c(cc12)CCC3`, with 252 to 254 °C.

`COCCCNC1(c2ccccc2Cl)C(=O)N(S(=O)(=O)c2ccc3c(c2)CCN3C(=O)OC)c2ccc(Cl)cc21` (stereo not given) displayed a melting point of 98 °C. In turn, `O=[N+]([O-])c1ccc(S(=O)(=O)c2ccc(Cl)cc2)nc1` had a melting point of 177 to 180 °C. As for `COc1ccc(S(=O)(=O)N(CC(C)C)CC(O)C(Cc2ccccc2)NC(=O)C(C)CS(C)(=O)=O)cc1OC` (stereo not given), the figure is 130 to 133 °C; as for `CN1CCC(C)(O)c2cccc(CSc3nc4ccccc4[nH]3)c21` (stereo not given), 156 to 157 °C. `CCN1CCN(c2nccc(Oc3ccc(NC(=O)c4cc(F)cc(N5CCCCC5)c4)c4ccccc34)n2)CC1` displayed a melting point of 86 to 87 °C. As for `Cc1ccc(-c2ccc(C(=O)Nc3ccc4nc(CN5C(C)(C)CCCC5(C)C)ccc4c3)cn2)cc1`, the figure is 246 to 247 °C; as for `Cc1cccc(NC(=O)NC2N=C(CC(C)C)c3cccc(C)c3N(CC(=O)N3CC4CCC(CC4)C3)C2=O)c1` (stereo not given), 134 to 135 °C. For `Cn1cc(-c2ccccc2)c(=O)c(-c2cccc(C(=O)O)c2)c1`, the melting point lay in the range of 265 to 267 °C. `CCCCCCCCOc1cc(O)c2c(=O)c3ccccc3oc2c1` had a melting point of 98 °C. The molecule `Cc1nsc(-c2ccc(Cl)nn2)n1` had a melting point of 180 °C.

As for `Cc1ccc(C(=S)NCCCCCCCNC(=S)c2ccc(C)cc2)cc1`, the melting point lay within 181 to 182 °C. As for `COc1cc2c(c(C(C(N)=O)c3ccccc3)c1)CC(C)O2` (stereo not given), the figure is 148 °C; as for `COc1ccc(C2(C#Cc3cccc(C(=O)O)c3)CCCC(=O)C2)cc1OC1CCCC1` (stereo not given), 71 to 73 °C. Then `OC1=NC2CCCc3cccc(c32)N1` (stereo not given), with 230 to 233 °C; and `C=CCCC(O)=C(C#N)C(=O)Nc1ccc(C(F)(F)F)cc1`, with 145 °C. Then `CC(C(=O)O)c1ccc2c(c1)Sc1ncccc1CC2=O` (stereo not given), with 150 to 151 °C; and `CSC1NC(=O)N(C)C(=O)N1N=C(C)C` (stereo not given), with 130 to 132 °C.

Take `CCCc1nc(NS(=O)(=O)c2ccc(C(C)(C)C)cc2)c(-c2ccc(C)cc2)c(OCCOc2ncc(-c3cccs3)cn2)n1`: the melting point lay in the range of 165 to 166 °C.

As to `CC(=O)Nc1ccc2c(c1)CCC(CC#N)C2=O` (stereo not given), the melting point was in the range of 189 to 190 °C. Then `CC(=O)Nc1cccc2c1C(=O)OC2(C)C`, with 124 °C; and `Cc1ncc(CNC(=O)c2sc(-n3cnn(Cc4ccc(F)cc4)c3=O)nc2C)s1`, with 176 to 177 °C. As for `CCc1c2nc(-c3cc(C(C)=O)cnc3OCC(C)C)[nH]c(=O)c2nn1C1CCN(C)CC1`, the figure is 195 to 196 °C; as for `Cc1nc2cc(C(C)C(=O)O)ccc2o1` (stereo not given), 115 to 117 °C; as for `COC(=O)c1ccn2c1C(C(=O)OC)CC2` (stereo not given), 70 to 71 °C. Then `CC(C)CN1C(N)=CC(=O)N2CCN=C21`, with 230 to 232 °C.

In turn, `O=c1c(-c2ccc(F)cc2)coc2cc(O)c(O)cc12` had a melting point of 296 °C. Then `Nc1cc(Nc2cccc(Cl)c2)ncn1`, with 171 to 172 °C; and `CCOC(=O)c1c(Cl)c2ccccc2[nH]c1=O`, with 186 °C.

`CCn1nc2c(N)nc(C)cc2c1CC(C)(C)O`: the melting point is 134 to 135 °C. As for `CCOC(=O)NC(=S)SCC`, the figure is 60 °C. As for `COc1ccc(C(=O)Nc2cccc3[nH]ccc23)c(OCC2CO2)c1` (stereo not given), the figure is 157 °C; as for `CCCCCS(=O)(=O)NC(=O)CCc1ccc(OCCOC)cc1Oc1ccccc1`, 70.4 to 70.5 °C; as for `CN(C)C(=O)c1ccccc1N`, 53 to 54 °C. Molecule `CN(CS(C)(=O)=O)C(=O)Nc1ccc(Cl)c(Cl)c1` displayed a melting point of 159 °C. For `Cn1c(Cc2cccc(C(F)(F)F)c2)nc2c(-c3cccc(C(=O)NCCC#N)c3)cccc21`, the melting point is 168 to 169 °C. Then `OP(O)C1(NC(c2ccccc2)c2ccccc2)CCCCC1`, with 194 to 196 °C; and `CC(O)Cn1cnc2c(=O)[nH]cnc21` (stereo not given), with 244 to 250 °C; and `Cc1ccc(S(=O)(=O)OC[C@H]2COc3ccc([N+](=O)[O-])c(CC(=O)O)c3O2)cc1`, with 158 to 159 °C.

As for `CCOC(=O)C(Cc1ccc(C(C)C)cc1)C(=O)N[C@@H](CC(C)C)C(=O)OC(C)(C)C` (stereo not given in full), the melting point was in the range of 68 to 73 °C. As for `CN(CC1(C)Cn2cc([N+](=O)[O-])nc2O1)C(=O)OCc1ccc(F)cc1` (stereo not given), the melting point fell in the range of 169 to 170 °C. In turn, `CCOC(=O)CCN(C(C)(C)C(=O)NO)S(=O)(=O)c1ccc(Oc2ccc(F)cc2)cc1` came in with a melting point of 125 °C. As for `CCOC(=O)C1=C(C)NN=C(c2ccccc2)C1c1ccccc1` (stereo not given), the figure is 130 °C; as for `Cc1ccc(C(=O)NC(C)(C(N)=O)C(C)C)cc1` (stereo not given), 145 to 152 °C.

In the case of `CCOc1cc2c(cc1OCC)C(=C(C#N)SCC(O)CN1CCOCC1)NCC2` (stereo not given), the melting point was found to be 97 °C. Then `C1=Cn2cnnc2C(c2ccccc2)c2ccccc21` (stereo not given), with 217 to 218 °C.
